Experimental data as given in US5635379A, “D-2-alkyl-tryptophan and peptides containing same” (Deghenghi; Romano, priority 1990, dated 1997).
Values belong to the compound of their own block, whether it stands above or below them.

Key:
[1] = Stability of D-Trp and D-2-methyl-Trp in 1% solutions, peak area by HPLC; assay type: physicochemical; conditions: pH 2.2 citrate buffer, dark, helium (FIG. 1) and pH 5.4 acetate buffer, oxygen, constant light (FIG. 2)
[2] = system: pituitary cell monolayers; experiment: GH-releasing activity in pituitary cell culture (monolayers); assay type: cell-based, Sprague Dawley rats; conditions: for GH in medium: 2 hours incubation
Protocol: (§1) Male Sprague Dawley rats (Charles River, Calco, Italy) of 2-3 months of age were used. Rats were housed at 22 +2° C., with lighting cycle of 14 h light: 10 h dark (lights on from 06.00 to 20.00 h), at least 10 days before starting the experiments. A standard dry diet and water were available ad libitum.
Pituitary tissue used for cell dissociation included only the anterior lobe. Briefly, pituitary glands were collected in sterile F-10 medium and after cutting into small fragments incubated twice (30 minutes each) at 37° C. in F-10 medium containing 6% fetal calf serum and collagenase (2.5 mg/ml) (Boehringer, Mannheim GmbH, Germany). Fragments were then washed in Dulbecco's PBS, Ca^2+ and Mg^2+ free medium and mechanically dissociated. Single cell suspension was planted onto 24-well (2×10^5 cells/well) culture plates. The cells were incubated in F-10 medium supplemented with 10% horse serum, 4% fetal calf serum and gentamycin (25 μg/ml), in a humidified atmosphere of 5% CO2 and 95% air at 37° C.
After 3 days, the medium was removed and the cells washed twice with serum free F-10, then incubated with 1 ml of F-10 containing 0.1% BSA only, or with added various concentrations of synthetic peptides.
After incubation for 2 h at 37° C., media were collected and stored frozen at -20° C. until assayed for measurement of GH content.
(§2) Medium and plasma GH was measured by radioimmunoassay using materials supplied by the NIADDK Bethesda, Md. Values were expressed in term of NIASSK-rat-GH-RP-2 standard (potency 2 IU/ml), as ng/ml of medium or plasma.
(§3) The minimum detectable value of rat was 1.0 ng/ml; intra-assay variability was 6%. To avoid inter-assay variation, samples from each experiment were assayed simultaneously.

[3] = Acute cardiovascular toxicity in the rat, single i.v. dose, mortality; assay type: in vivo; conditions: observed up to 4 hours
Protocol: These two peptides were also tested for acute cardiovascular toxicity in the rat.
Dosages were calculated on the basis of the declared peptide content in each product, as specified below:
A single dose of HEXARELIN or GHRP-6 was administered to rats in different calendar dates in such a way that each group/dose should be treated in two subsequent days.
For each compound, appropriate amounts of solutions in 0.9% NaCl for injection were prepared just before treatment at the suitable concentrations. The solutions were sterilized by filtration (Millipore filter, pore size 0.22 μm). Owing to the type of the study (acute study) in which formulates were administered just after preparation, stability checks were not performed. Concentration checks were also not performed. The volume of solution injected was maintained constant at 1 ml/Kg.
The intravenous injections were done as a single dose in one vein of the tail with an appropriately gauged sterile, disposable, plastic syringe. The injection rate was about 0.1 ml/sec.
Periodical observations were made up to 4 hours after treatment. Abnormality and mortality were recorded. Body weight was recorded once during pre-trial and on the administration day to calculate the volumes to be injected.

GH release [4] = experiment: GH-releasing activity s.c. in male rats anesthetized with ketamine and xilazine; assay type: in vivo, Sprague Dawley rats
Protocol: as §1
(§4) Between 09.00-10.00 h rats were anesthetized with ketamine (58 mg/kg, Inoketam, VIRBAC, Milano) and xilazine (12 mg/kg, Rompun, Bayer, Milano). Thirty minutes later, a blood sample ([…]) was withdrawn from the exposed jugular vein, peptides were injected intravenously or subcutaneously, and further blood samples were collected 10, 20 and 30 minutes later.
as §2, §3

GH release [5] = experiment: GH response in conscious, freely-moving rats after antiserum pretreatment and i.v. peptide; assay type: in vivo; conditions: i.v. 25 μg/kg peptide, pooled over antiserum pretreatments
Protocol: Sixty male rats were prepared with indwelling venous catheters under ether anesthesia three days before experimentation. On the day of experimentation, all animals were given an iv heparin injection (100 IU; 0630 h). At 0700 h, animals were treated with 0.5 ml of either normal serum (control-as), somatostatin antiserum (somatostatin-as; 0.25 ml+0.25 ml saline), growth hormone-releasing hormone antiserum (GHRH-as; 0.25 ml+0.25 ml saline), or both somatostatin antiserum and growth hormone-releasing hormone antiserum (0.25 ml somatostatin-as+0.25 ml GHRH-as). Blood sampling began […] after antiserum pretreatment, with blood samples collected every 20 minutes for three hours. After the 180 minute sample (1100 h), animals were treated iv with 25 μg/kg of either Hexarelin or GHRP-6. Blood samples were then collected at 5, 10, 15, 20 30, 40, and 60 minutes after peptide treatment. All samples were centrifuged immediately and the plasma frozen until assayed. The peak GH response to Hexarelin and GHRP-6 as well as the area under the response curves (AUCs) for the thirty minutes following peptide injection were calculated. Data were subjected to repeated measures analysis of variance and are expressed as mean ±SEM.

GH release [6] = experiment: GH-releasing activity i.v. in male rats anesthetized with ketamine and xilazine; assay type: in vivo, Sprague Dawley rats
Protocol: as §1, §4, §2, §3

GH release [7] = experiment: GH release in pentobarbital-anesthetized rats, s.c.; assay type: in vivo, Sprague Dawley rats
Protocol: Male Sprague Dawley rats weighing 225-250 g were divided in groups of five animals each. Rats were anesthetized with Nembutal injected intraperiteonally at 50 mg/kg, fifteen minutes prior to the first blood withdrawal taken over heparin by cardiac puncture (for determination of basal GH).
Subcutaneous injections of either HEXARELIN or GHRP-6 were given immediately after the first blood collection, and additional blood samples were collected 15 and 40 minutes later.
Measurement of rat GH was performed by a standard double antibody radioimmunoassay with reagents supplied by the National Pituitary Agency and the National Institute of Arthritis, Diabetes, and Digestive and Kidney Diseases. The standards used were NIADDK-NIH-rGH-RP-2. Statistical data were obtained with the Student's t Test at a significance level of 5%.

plasma testosterone = assay type: in vivo, Beagle dogs
Excerpt: After an initial flare-up, plasma testosterone fell below castration levels after approximately 10 days, and was maintained for approximately 180 days.

[8] = PLGA implant rods, 20 or 25% loading (7 or 10 mg), subcutaneous

Compound: N[C@H](Cc1c[nH]c2ccccc12)C(=O)O [D-Trp, D-Tryptophan, reference compound]
time the compound is stable in solution (HPLC peak area) [1]: about 20 days

time the compound is stable in solution (HPLC peak area) [1]: ≥ 60 days
Compound: Cc1[nH]c2ccccc2c1C[C@@H](N)C(=O)O [Example 1, 2-methyl-D-tryptophan]

Compound: GHRP-6 [reference compound]
GH in medium ([2]; 10^-6 M): 510.0 ± 12.0 ng/well
GH in medium ([2]; 10^-7 M): 526.5 ± 19.0 ng/well
GH in medium ([2]; 10^-8 M): 544.2 ± 23.9 ng/well
GH secretion versus basal ([2]; 10^-8 to 10^-6 M, two hours): stimulation of GH secretion over basal secretion
Dead rats/Total N° of rats per group ([3]; single i.v. dose 2.5 mg/kg): 0/6
Dead rats/Total N° of rats per group ([3]; single i.v. dose 5.0 mg/kg): 1/6
Dead rats/Total N° of rats per group ([3]; single i.v. dose 7.5 mg/kg): 2/6
plasma GH (GH release [4]; s.c. 150 μg/kg, 10 min): 63.1 ± 11.0 ng/mL
plasma GH (GH release [4]; s.c. 150 μg/kg, 20 min): 110.4 ± 18.0 ng/mL
plasma GH (GH release [4]; s.c. 150 μg/kg, 30 min): 77.2 ± 14.0 ng/mL
plasma GH (GH release [4]; s.c. 150 μg/kg, time 0 min (before injection)): 20.0 ± 5.0 ng/mL
plasma GH (GH release [4]; s.c. 300 μg/kg, 10 min): 63.9 ± 12.8 ng/mL
plasma GH (GH release [4]; s.c. 300 μg/kg, 20 min): 123.4 ± 14.6 ng/mL
plasma GH (GH release [4]; s.c. 300 μg/kg, 30 min): 87.7 ± 11.8 ng/mL
plasma GH (GH release [4]; s.c. 300 μg/kg, time 0 min (before injection)): 20.0 ± 6.0 ng/mL
plasma GH (GH release [4]; s.c. 600 μg/kg, 10 min): 93.1 ± 22.3 ng/mL
plasma GH (GH release [4]; s.c. 600 μg/kg, 20 min): 167.1 ± 14.7 ng/mL
plasma GH (GH release [4]; s.c. 600 μg/kg, 30 min): 107.8 ± 9.5 ng/mL
plasma GH (GH release [4]; s.c. 600 μg/kg, time 0 min (before injection)): 18.0 ± 4.0 ng/mL
Mean GH (GH release [5]): 131 ± 13 ng/mL
Peak GH (GH release [5]): 293 ± 41 ng/mL
GH AUC (GH release [5]; thirty minutes following injection): 4220 ± 665 ng/ml/30 min
plasma GH (GH release [6]; i.v. 150 μg/kg, 10 min): 394.0 ± 31.0 ng/mL
plasma GH (GH release [6]; i.v. 150 μg/kg, 20 min): 139.3 ± 10.2 ng/mL
plasma GH (GH release [6]; i.v. 150 μg/kg, 30 min): 42.5 ± 4.5 ng/mL
plasma GH (GH release [6]; i.v. 150 μg/kg, time 0 min (before injection)): 30.2 ± 7.8 ng/mL
plasma GH (GH release [6]; i.v. 300 μg/kg, 10 min): 413.6 ± 21.5 ng/mL
plasma GH (GH release [6]; i.v. 300 μg/kg, 20 min): 162.7 ± 22.1 ng/mL
plasma GH (GH release [6]; i.v. 300 μg/kg, 30 min): 38.2 ± 7.7 ng/mL
plasma GH (GH release [6]; i.v. 300 μg/kg, time 0 min (before injection)): 21.9 ± 4.4 ng/mL
plasma GH (GH release [6]; i.v. 600 μg/kg, 10 min): 542.0 ± 38.0 ng/mL
plasma GH (GH release [6]; i.v. 600 μg/kg, 20 min): 195.5 ± 11.0 ng/mL
plasma GH (GH release [6]; i.v. 600 μg/kg, time 0 min (before injection)): 21.2 ± 6.1 ng/mL
POST-DRUG PLASMA GH (GH release [7]; s.c. 25 μg/kg, 0 min (basal)): 41 ± 16 ng/mL
POST-DRUG PLASMA GH (GH release [7]; s.c. 25 μg/kg, 15 min): 222 ± 95 ng/mL
POST-DRUG PLASMA GH (GH release [7]; s.c. 25 μg/kg, 40 min): 110 ± 47 ng/mL
POST-DRUG PLASMA GH (GH release [7]; s.c. 50 μg/kg, 0 min (basal)): 57 ± 39 ng/mL
POST-DRUG PLASMA GH (GH release [7]; s.c. 50 μg/kg, 15 min): 262 ± 58 ng/mL
POST-DRUG PLASMA GH (GH release [7]; s.c. 50 μg/kg, 40 min): 97 ± 44 ng/mL

Compound: Pyro-Glu-His-Ser-Tyr-D-2-alkyl-Trp-Leu-Arg-Pro-NHCH2 CH3 [Example 3]
time plasma testosterone was maintained below castration levels (plasma testosterone; [8]): approximately 180 days
time until plasma testosterone fell below castration levels (plasma testosterone; [8]): approximately 10 days
response to stimulation by i.v. administration of the peptide (plasma testosterone; day 145 after implant): absence of response
clinical side effects (plasma testosterone; dog, in vivo, sc): No clinical side effects were observed
